From patent publication US11926631B2, “Method of treating cancer using amanitin derivatives” (Heidelberg Pharma Research GmbH, priority 2017, dated 2024)
pKd: −log10 of the molar value. *1 amine or outer side, *2 acyl side, *3 side chain or, on linkers, in order; H or OH if unused. Where a SMILES comes first, the peptide text is derived from it. Bridges are numbered along the chain shown (N, C = ends). [ ]: non-standard residue; d: D form. ξ: configuration not given here. Ile(4R-OH,5-OH) = C[C@H]([C@H](N)C(=O)O)[C@@H](O)CO; X2 = Nc1ccc2c(CC(N[*:1])C(=O)[*:2])c([*:3])[nH]c2c1; X1 = O=C([C@@H]1CC(O)CN1[*:1])[*:2]; ξC = NC(CS)C(=O)O

Key:
[1] = BrdU cell proliferation assay (cytotoxicity) on HEK293 OATP1B3 cells; type: cell-based; details: human, 96 h incubation, BrdU assay (FIG. 4)
Experimental: (§1) BrdU Cell Proliferation Assay on HEK293 and HEK293 OATP1B3 cells
HEK293-OATP1B3 cell culture plates were coated with poly-D-lysine.
Coating with Poly-D-Lysine: • 5 mg poly D-lysine in 50 ml sterile water • 50 μl in each well of a 96 well plate • Incubation for 1 h at RT • Washing of wells twice with 200 μl sterile water • Drying for at least for 2 h (RT)
(§2) Black 96-well plates with clear bottom with 2.0×10^3 HEK293 and HEK293 OATP1B3 cells/well and 90 μl growth medium per well including 10% FCS and supplements were prepared. Controls: “Blank” was set up with 100 μl medium without cells, “Background” and “100%” were set up with cells in 100 μl medium.
(§3) Incubation for 24 h at 37° C. and 5% CO2.
(§4) Dilution Scheme of HDP 30.2528 and Alpha-Amanitin:
(§5) The stock solutions were diluted 1:1,000 (1:10 and 1:100 dilution) in medium: • 10 μl Amanitin derivative stock solution (1.0×10^−2 M)+90 μl PBS=100 μl 1.0×10^−3 M • 2 μl dilution+198 μl medium=200 μl 1×10^−5 M
Further Dilutions: • A: 200 μl 1.0×10^−5 M • B: 80 μl growth medium+20 μl solution A (1:5 dilution) • C: 80 μl growth medium+20 μl solution B (1:5 dilution) • D: 80 μl growth medium+20 μl solution C (1:5 dilution) • E: 80 μl growth medium+20 μl solution D (1:5 dilution) • F: 80 μl growth medium+20 μl solution E (1:5 dilution) • G: 80 μl growth medium+20 μl solution F (1:5 dilution) • H: 80 μl growth medium+20 μl solution G (1:5 dilution) […]

[2] = BrdU cell proliferation assay (cytotoxicity) on HEK293 cells; type: cell-based; details: human, 96 h incubation, BrdU assay (FIG. 4)
Experimental: as §1, §2, §3, §4, §5
Further Dilutions: • A: 200 μl 1.0×10^−5 M • B: 80 μl growth medium+20 μl solution A (1:5 dilution) • C: 80 μl growth medium+20 μl solution B (1:5 dilution) • D: 80 μl growth medium+20 μl solution C (1:5 dilution) • E: 80 μl growth medium+20 μl solution D (1:5 dilution) • F: 80 μl growth medium+20 μl solution E (1:5 dilution) • G: 80 μl growth medium+20 μl solution F (1:5 dilution) • H: 80 μl growth medium+20 μl solution G (1:5 dilution)
10 μl of each solution were added to well triplicates. […]

[3] = biological target: DNA-dependent RNA polymerase II (Homo sapiens, UniProt P24928+P30876); details: background statement, no test in the patent; read-out: KD of the complex with RNA-polymerase II; cited from earlier work

Row | Compound | EC50 at 96 h [1] [µM] | EC50 at 96 h [2] [µM] | pKd [3]
1 | CC[C@H](C)[C@@H]1NC(=O)CNC(=O)C2Cc3c([nH]c4cc(N)ccc34)SCC(NC(=O)CNC1=O)C(=O)N[C@@H](CC(N)=O)C(=O)N1CC(O)C[C@H]1C(=O)N[C@@H]([C@@H](C)[C@@H](O)CO)C(=O)N2 (stereo partly drawn) [HDP 30.2528, 6′-amino-amaninamide] (cyclo(GIG[ξC]N[X1][Ile(4R-OH,5-OH)][X2]); thioether 4-8) | 0.03 | 3 | 
2 | amanitin |  |  | 8.52
